Consider four compounds from ChEMBL document CHEMBL1146827, “Synthesis and evaluation as sialidase inhibitors of xylo-configured cyclohexenephosphonates carrying glycerol side-chain mimics” (Bioorg Med Chem Lett, 2004).

By IC50 is commonly meant the concentration that inhibits the measured activity by half.

The nature of test [1]: Compound was tested for inhibitory activity against sialidase from Clostridium perfringens; n.a. = not active.
A short description of test [2]: Compound was tested for inhibitory activity against sialidase from Salmonella Typhimurium. On the set-up: species or system Salmonella enterica subsp. enterica serovar Typhimurium.
A short description of test [3]: Compound was tested for inhibitory activity against sialidase from Vibrio cholerae.

Regarding `C=CCO[C@@H]1CC(P(=O)(O)O)=C[C@H](O)[C@H]1NC(C)=O.CCN(CC)CC.CCN(CC)CC`, the values for the IC50 result in test [1], in test [2] and in test [3] were “Not Active”, less than 2 mM and 1.5 mM, respectively.
Take `CC(=O)N[C@@H]1[C@@H](O)C=C(P(=O)(O)O)C[C@H]1OCC(O)CO.N.N` (stereo partly specified): the values for the IC50 entry in test [1] and in test [2] were “Not Active” and more than 4 mM, respectively.
Consider `CC(=O)N[C@@H]1[C@H](O)C=C(P(=O)(O)O)C[C@H]1OCCO.N.N`, for which the IC50 result is “Not Active” in test [1], 1.8 mM in test [2] and 1.6 mM in test [3].
The like results for `CC(=O)N[C@H]1[C@H](O)CC(P(=O)(O)O)=C[C@@H]1O.N.N` were, in that order, “Not Active”, 1 mM and 1.8 mM.
